Measured values published in US8563609B2, “Nitro fatty acids - neuroprotection and/or inhibition of cognitive decline” (Nitromega Corp., priority 2010, dated 2013).

What was measured:
[1] = 900 mgs per day oral, six months; cited from earlier work
motor neurons = assay: motor neuron astrocyte coculture, in vitro model of ALS (SOD G93A astrocytes); type: cell-based, mice
Experimental: Recent studies have shown that nitro-arachidonic acid can have protective effects compared with native arachidonic acid in an in vitro model of ALS. This model is based on astrocyte-induced motoneuron toxicity induced by a mutation in CuZn SOD (SOD1).
Briefly, motor neuron astrocytes cocultures were made.
FIG. 2 illustrates the results of these experiments. Native arachidonic acid (AA) at 3 μM and 5 μM had no effect on the motor neuron survival compared with control.

[2] = tested on: Abeta-mediated changes in membrane trafficking; assay: exocytosis (formazan membrane trafficking) assay with Abeta oligomers in mature primary neuronal cultures; type: cell-based, rat; details: for amyloid beta (Abeta) in intracellular vesicles (figure legend): exocytosis assay, mature primary neuronal cultures grown for 3 weeks in vitro
Description: Abeta oligomer preparations: Human amyloid peptide 1-42 was obtained from a variety of commercial sources, with lot-choice contingent upon quality control analysis. Abeta 1-42 oligomers made according to published methods or isolated from human brain tissue served as positive controls. Toxicity was monitored in each image-based assay via quantification of nuclear morphology visualized with the DNA binding dye DAPI. Nuclei that were fragmented were considered to be in late stage apoptosis. Peptide lots producing unusual peptide size ranges or significant toxicity at standard concentrations on neurons were rejected.
Image Processing: Images are captured and analyzed with the Cellomics VTI automated microscope platform. For statistical analysis, a Tukey-Kramer pair-wise comparison with unequal variance is used.
A primary neuron-based functional screening assay to detect small molecule Abeta oligomer blockers: Primary rat neurons grown for at least 3 weeks in vitro were chosen as the basis for this screening assay. […] More complex systems such as acute or organotypic brain slices are very useful but not amenable to high throughput screening. […] For this reason, primary neuronal cultures were chosen because of their ability to be used in high throughput screens and fidelity to what occurs in vivo.
Measuring membrane trafficking rate changes induced by oligomers via formazan morphological shifts has been used in cell lines to discover Abeta oligomer-blocking drugs.
Yellow tetrazolium salts are endocytosed by cells and reduced to insoluble purple formazan in the endosomal pathway. The level of purple formazan is a reflection of the number of actively metabolizing cells in culture, and reduction in the amount of formazan was taken as a measure of cell death or metabolic toxicity in culture as well as an indicator of membrane trafficking
The exocytosis assay was adapted for use with mature primary neuronal cultures grown for 3 weeks in vitro.

[3] = primary neuronal cultures grown for 3 weeks in vitro, Abeta oligomers

CC/C=C\C/C=C\C/C=C\C/C=C\C/C=C\C/C=C\CCC(=O)O [DHA, docosahexaenoic acid]
tolerability [1]: well-tolerated

CCCCC/C=C\C/C=C\C/C=C\C/C=C\CCCC(=O)O [arachidonic acid]
motor neuron survival compared with control / mutant astrocyte induced motor neuron death (motor neurons; 3 μM): no effect | motor neuron survival compared with control / mutant astrocyte induced motor neuron death (motor neurons; 5 μM): no effect

C[C@]12N[C@H](Cc3ccccc31)c1ccccc12 [MK-801]
block of Abeta oligomer effects on membrane trafficking (active / not active) [2, 3]: none were active

Nitro-oleic acid
amyloid beta (Abeta) in intracellular vesicles (figure legend) [2]: dose-dependent decrease | block of Abeta oligomer effects on membrane trafficking (active / not active) [2, 3]: little statistically relevant effect on membrane trafficking

O[C@H]1[C@H](O)[C@@H](O)[C@H](O)[C@@H](O)[C@@H]1O [scyllo-inositol]
block of Abeta oligomer effects on membrane trafficking (active / not active) [2, 3]: none were active

nitro-arachidonic acid
motor neuron survival compared with control / mutant astrocyte induced motor neuron death (motor neurons; 3 μM): inhibited mutant astrocyte induced motor neuron death | motor neuron survival compared with control / mutant astrocyte induced motor neuron death (motor neurons; 5 μM): inhibited mutant astrocyte induced motor neuron death | motorneuron death caused by co-culture with astrocytes containing a mutation in SOD1 (SOD G93A) (motor neurons; incubated for 24 hours with wild type motor neurons): limited motorneuron death

C[N+](C)(C)CCCCCC[N+](C)(C)C [hexamethonium bromide]
block of Abeta oligomer effects on membrane trafficking (active / not active) [2, 3]: none were active

CCCCCCCC/C=C\CCCCCCCC(=O)O [oleic acid]
EC50 ([2]; Rattus norvegicus, 504 h, primary neuronal cultures grown for 3 weeks in vitro, Abeta oligomers, read-out: EC50, inhibition of oligomer effects on membrane trafficking): 2080 nM | amyloid beta (Abeta) in intracellular vesicles (figure legend) [2]: dose-dependent decrease
